Reference: the supplement of paper PMC10307832

Legend:
Experiment in all cases: relative viability (nuclei count vs DMSO), 5 days (fraction); higher = more cells survive
[1] = compound: C[C@]12O[C@H](C[C@]1(O)CO)n1c3ccccc3c3c4c(c5c6ccccc6n2c5c31)CNC4=O [Lestaurtinib] + Nc1nc2[nH]cc(CCc3ccc(C(=O)N[C@@H](CCC(=O)O)C(=O)O)cc3)c2c(=O)[nH]1 [Pemetrexed] (partner 0.2 µM)
Outline: (§1)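 Dosing by pin tool came one day after lung cancer cell lines were seeded in 1536-well plates, using either one drug or a fixed anchor-drug dose plus five library-drug doses (not always all listed) in √10 steps. After 5 days, nuclei were counted on 4× images. Relative viability is treated-well nuclei count divided by vehicle-well nuclei count, and values are medians of duplicate plates.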

[2] = compound: C[C@]12O[C@H](C[C@]1(O)CO)n1c3ccccc3c3c4c(c5c6ccccc6n2c5c31)CNC4=O [Lestaurtinib] + COc1cccc2cc(-c3nc([C@H]4CC[C@H](C(=O)O)CC4)n4ncnc(N)c34)[nH]c12 [OSI-027] (partner 0.5 µM)
Outline: as §1

[3] = compound: C1=CC(=CC=C1C2=CC(=C(S2)NC(=O)N)C(=O)N)F [TPCA-1] + C[C@]1(O)C[C@@H](c2nc(-c3ccc4ccc(-c5ccccc5)nc4c3)c3c(N)nccn32)C1 [Linsitinib] (partner 1 µM)
Outline: as §1

[4] = compound: C[C@]12O[C@H](C[C@]1(O)CO)n1c3ccccc3c3c4c(c5c6ccccc6n2c5c31)CNC4=O [Lestaurtinib] + NC(=O)Nc1cc(-c2cccc(F)c2)sc1C(=O)N[C@H]1CCCNC1 [AZD7762] (partner 0.2 µM)
Outline: as §1

| Cell Line | relative viability ([1]; first compound 0.01581 µM) | relative viability ([1]; first compound 0.05 µM) | relative viability ([1]; first compound 0.1581 µM) | relative viability ([1]; first compound 0.5 µM) | relative viability ([2]; first compound 0.005 µM) | relative viability ([2]; first compound 0.01581 µM) | relative viability ([2]; first compound 0.05 µM) | relative viability ([2]; first compound 0.1581 µM) | relative viability ([2]; first compound 0.5 µM) | relative viability ([3]; first compound 0.04 µM) | relative viability ([3]; first compound 0.1265 µM) | relative viability ([3]; first compound 0.4 µM) | relative viability ([3]; first compound 1.265 µM) | relative viability ([3]; first compound 4 µM) | relative viability ([4]; first compound 0.005 µM) | relative viability ([4]; first compound 0.01581 µM) | relative viability ([4]; first compound 0.05 µM) | relative viability ([4]; first compound 0.1581 µM) | relative viability ([4]; first compound 0.5 µM) | relative viability ([1]; first compound 0.005 µM) |
| --- | --- | --- | --- | --- | --- | --- | --- | --- | --- | --- | --- | --- | --- | --- | --- | --- | --- | --- | --- | --- |
| LCLC-97TM1 | 0.183 | 0.149 | 0.146 | 0.132 | 0.547 | 0.42 | 0.125 | 0.215 | 0.182 | 0.206 | 0.188 | 0.166 | 0.15 | 0.159 | 0.167 | 0.279 | 0.166 | 0.175 | 0.114 |  |
| NCI-H1793 | 0.911 | 0.544 | 0.692 | 0.541 | 0.291 | 0.257 | 0.242 | 0.274 | 0.183 | 1.05 | 0.674 | 0.934 | 0.683 | 0.727 | 0.406 | 0.485 | 0.357 | 0.422 | 0.303 | 0.809 |
| NCI-H3122 | 0.205 | 0.193 | 0.216 | 0.187 | 1.36 | 1.4 | 0.99 | 0.875 | 0.339 | 1.11 | 0.983 | 0.981 | 0.985 | 1.02 | 1.05 | 1.08 | 1.1 | 1.32 | 0.537 | 0.227 |
| PC-14 | 0.131 | 0.154 | 0.154 | 0.0792 | 0.805 | 0.592 | 0.609 | 0.623 | 0.116 | 0.939 | 0.978 | 0.926 | 0.966 | 0.692 | 0.336 | 0.57 | 0.362 | 0.248 | 0.146 | 0.153 |
| EPLC-272H | 0.349 | 0.452 | 0.189 | 0.0958 | 0.288 | 0.278 | 0.222 | 0.223 | 0.166 | 1.3 | 1.09 | 1.33 | 1.03 | 1.01 | 0.153 | 0.219 | 0.119 | 0.225 | 0.27 | 0.308 |
| A-427 | 1.14 | 0.925 | 0.503 | 0.275 | 0.473 | 0.402 | 0.257 | 0.233 | 0.146 | 1.13 | 1.06 | 1.17 | 1.09 | 1.12 | 0.712 | 0.755 | 0.645 | 0.433 | 0.215 | 0.865 |
